What was measured:
[1] = Rat pharmacokinetics, cassette dosing (IV and PO); type: in vivo; conditions: male SD rats; for bioavailability / IV clearance / AUC / Cmax / half-life: rat; for bioavailability: 5 mg/kg; for half-life: read-out: PO T½ (converted)
Procedure: Male SD rats were fasted overnight. Compounds of the invention were dissolved in dimethyl acetamide at 10 times the final concentration, then Solutol HS 15 (BASF) was added to a final concentration of 10%. Finally 80% saline was added and vortexed to achieve a clear solution. For the IV dosing three animals were injected via the foot dorsal vein with 1 mg/kg compound. For the PO dosing 5 mg/kg of compound was delivered by oral gavage. Blood was collected via the tail vein into K2EDTA tubes at 5 minutes, 15 minutes, 30 minutes, 1 hour, 2 hours, 4 hours, 8 hours and 24 hours after dosing. The blood was centrifuged at 2000 g for 5 minutes at 4° C. to obtain plasma. The plasma was extracted with acetonitrile and the level of compound was analyzed by LC/MS/MS. The level of compound in plasma was calculated from a standard curve in rat plasma. The IV clearance (L/h/kg) and area under the curve (h*ng/mL) were calculated using WinNonLin software. The dose adjusted area under the curve for the IV and oral dosing were used to calculate the oral bioavailability.
Pharmacokinetic properties were assessed in a rat cassette dosing experiment. The IV clearance (IV Clr.) is in units of L/hr/kg. The oral maximum plasma concentration (PO Cmax) is in units of ng/ml. The oral plasma half-life (PO T½) is in units of hours. The oral area under the curve (PO AUC) is in units of hours*ng/ml. The fraction absorbed by the oral route (F %) is a percentage of the oral area under the curve to the IV area under the curve, dose adjusted.

[2] = target: HDAC1 (Homo sapiens (Human), UniProt Q13547); experiment: HDAC enzyme assay HDAC1; type: biochemical
[3] = target: HDAC2 (Homo sapiens (Human), UniProt Q92769); experiment: HDAC enzyme assay HDAC2; type: biochemical
Procedure: Compounds for testing were diluted in DMSO to 50 fold the final concentration and a ten-point three-fold dilution series was made. The compounds were diluted in assay buffer (50 mM HEPES, pH 7.4, 100 mM KCl, 0.001% Tween-20, 0.05% BSA, 20 μM TCEP) to 6-fold their final concentration. The HDAC enzymes (purchased from BPS Biosciences) were diluted to 1.5-fold their final concentration in assay buffer. The tripeptide substrate and trypsin at 0.05 μM final concentration were diluted in assay buffer at 6-fold their final concentration. The final enzyme concentrations used in these assays were 3.3 ng/ml (HDAC1), 0.2 ng/ml (HDAC2) and 0.08 ng/ml (HDAC3). The final substrate concentrations used were 16 μM (HDAC1), 10 μM (HDAC2) and 17 μM (HDAC3).
Five μl of compounds and 20 μl of enzyme were added to wells of a black, opaque 384 well plate in duplicate. Enzyme and compound were incubated together at room temperature for 10 minutes. Five μl of substrate was added to each well, the plate was shaken for 60 seconds and placed into a Victor 2 microtiter plate reader. The development of fluorescence was monitored for 60 min and the linear rate of the reaction was calculated. The IC50 was determined using Graph Pad Prism by a four parameter curve fit.

[4] = target: HDAC3 (Homo sapiens (Human), UniProt O15379); experiment: HDAC enzyme assay HDAC3; type: biochemical
Procedure: Compounds for testing were diluted in DMSO to 50 fold the final concentration and a ten-point three-fold dilution series was made. The compounds were diluted in assay buffer (50 mM HEPES, pH 7.4, 100 mM KCl, 0.001% Tween-20, 0.05% BSA, 20 μM TCEP) to 6-fold their final concentration. The HDAC enzymes (purchased from BPS Biosciences) were diluted to 1.5-fold their final concentration in assay buffer. The tripeptide substrate and trypsin at 0.05 μM final concentration were diluted in assay buffer at 6-fold their final concentration. The final enzyme concentrations used in these assays were 3.3 ng/ml (HDAC1), 0.2 ng/ml (HDAC2) and 0.08 ng/ml (HDAC3). The final substrate concentrations used were 16 μM (HDAC1), 10 μM (HDAC2) and 17 μM (HDAC3). Five μl of compounds and 20 μl of enzyme were added to wells of a black, opaque 384 well plate in duplicate. Enzyme and compound were incubated together at room temperature for 10 minutes. Five μl of substrate was added to each well, the plate was shaken for 60 seconds and placed into a Victor 2 microtiter plate reader. The development of fluorescence was monitored for 60 min and the linear rate of the reaction was calculated. The IC50 was determined using Graph Pad Prism by a four parameter curve fit. In Table 4 below, letter designations are defined as follows: […]

[5] = target: hERG (Homo sapiens (Human), UniProt Q12809); experiment: hERG inhibition, whole-cell patch clamp; type: cell-based; conditions: HEK293 cells stably transfected with hERG
Procedure: For hERG inhibition assays, the cells used were HEK293 cells stably transfected with hERG (cell line obtained from Cytocentrics Inc. 3463 Magic Drive San Antonio, Tex. 78229). Composition of External Solution: NaCl, 137 mM; KCl, 4 mM; MgCl2, 1.0 mM; CaCl2, 1.8 mM; HEPES 10 mM; Dextrose 11 mM; Adjusted to a pH of 7.4 with NaOH. Composition of Internal Solution: KCl, 130.0 mM; MgCl2, 1.0 mM; HEPES, 5.0 mM; EGTA, 5.0 mM; NaCl 7.0 mM. Adjusted to a pH of 7.2 using KOH. Test Concentrations: 0.1, 1, 10, 100 μM. Vehicle: DMSO. Experiments were performed at 34+/−1° C. Current was recorded using the whole-cell patch clamp technique on the Cytopatch automated platform. hERG current was elicited with the following voltage protocol: hERG current amplitude was measured as the peak current at −50 mV (tail current). […] Each cell served as its own control. Data are presented as the IC50 calculated by non-linear regression analysis.

[6] = system: CYP1A2, CYP2C9, CYP2C19, CYP3A4, CYP2D6; experiment: Cyp inhibition in human liver microsomes (all isozymes); type: in vitro ADME
Procedure: For Cyp inhibition, human liver microsomes from BD Gentest were incubated with Compound 028 or Compound 032 (10, 3.33, 1.11, 0.37, 0.12, 0.04, 0.01 μM) and substrate (CYP1A2: Phenacetin at 30 μM; CYP2C9: Diclofenac at 10 μM; CYP2C19: S-Mephenytoin at 35 μM; CYP3A4: Midazolam at 5 μM and Testosterone at 80 μM; CYP2D6: Bufuralol at 10 μM) for the following incubation times: CYP1A2, 2C9, 2D6: 10 minutes, 37° C.; CYP2C19: 45 minutes, 37° C.; CYP3A4: 5 minutes, 37° C. Substrate conversion was measured by liquid chromatography/mass spectrometry/mass spectrometry (LC/MS/MS). Inhibition was calculated by curve fitting in Graph Pad Prism.

[7] = plasma, oral AUC to IV AUC, dose adjusted

Sequence of HDAC1 (Q13547 whole entry): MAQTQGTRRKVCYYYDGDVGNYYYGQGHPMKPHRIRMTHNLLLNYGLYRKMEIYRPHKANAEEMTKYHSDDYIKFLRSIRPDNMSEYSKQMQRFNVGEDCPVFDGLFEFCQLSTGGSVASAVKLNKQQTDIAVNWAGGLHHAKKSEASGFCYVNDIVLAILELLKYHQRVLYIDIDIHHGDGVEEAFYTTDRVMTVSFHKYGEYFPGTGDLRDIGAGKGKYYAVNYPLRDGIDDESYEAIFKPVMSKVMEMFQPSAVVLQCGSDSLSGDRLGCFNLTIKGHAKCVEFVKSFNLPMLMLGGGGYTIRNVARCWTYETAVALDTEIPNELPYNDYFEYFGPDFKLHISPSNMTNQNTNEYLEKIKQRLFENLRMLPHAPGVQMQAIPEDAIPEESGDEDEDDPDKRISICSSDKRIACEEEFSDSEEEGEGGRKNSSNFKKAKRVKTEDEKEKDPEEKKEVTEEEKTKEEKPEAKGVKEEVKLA
Sequence of HDAC3 (O15379 whole entry): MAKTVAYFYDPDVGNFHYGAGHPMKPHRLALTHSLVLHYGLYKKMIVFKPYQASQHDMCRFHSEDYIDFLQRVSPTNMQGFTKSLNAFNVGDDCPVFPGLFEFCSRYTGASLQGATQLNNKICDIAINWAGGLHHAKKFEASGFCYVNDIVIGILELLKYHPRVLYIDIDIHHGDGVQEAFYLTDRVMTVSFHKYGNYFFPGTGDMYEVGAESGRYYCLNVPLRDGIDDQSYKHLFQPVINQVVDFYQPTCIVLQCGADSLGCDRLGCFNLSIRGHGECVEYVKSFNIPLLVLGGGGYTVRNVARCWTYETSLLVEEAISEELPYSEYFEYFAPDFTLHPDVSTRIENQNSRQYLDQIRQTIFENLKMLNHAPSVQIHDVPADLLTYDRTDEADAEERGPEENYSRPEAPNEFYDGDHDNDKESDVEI
Sequence of HDAC3 (Q9Y618 395-489 partner): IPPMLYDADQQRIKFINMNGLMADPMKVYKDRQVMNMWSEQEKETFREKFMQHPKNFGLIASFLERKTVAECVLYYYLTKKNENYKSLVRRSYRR
Sequence of HDAC2 (Q92769 whole entry): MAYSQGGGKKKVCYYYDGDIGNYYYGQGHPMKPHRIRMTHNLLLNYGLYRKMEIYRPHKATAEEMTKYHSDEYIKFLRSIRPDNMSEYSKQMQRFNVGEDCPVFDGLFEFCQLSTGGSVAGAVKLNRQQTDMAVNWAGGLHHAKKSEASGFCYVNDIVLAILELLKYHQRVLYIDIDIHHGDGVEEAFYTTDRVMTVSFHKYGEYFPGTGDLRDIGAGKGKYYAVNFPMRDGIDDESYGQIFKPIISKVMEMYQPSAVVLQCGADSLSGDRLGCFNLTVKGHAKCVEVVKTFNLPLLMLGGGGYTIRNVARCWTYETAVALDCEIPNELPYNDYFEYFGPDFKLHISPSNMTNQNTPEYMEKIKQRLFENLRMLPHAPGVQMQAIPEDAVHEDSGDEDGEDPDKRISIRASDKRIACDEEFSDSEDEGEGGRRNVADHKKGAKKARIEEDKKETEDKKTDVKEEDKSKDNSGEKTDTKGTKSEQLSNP
Sequence of hERG (Q12809 whole entry): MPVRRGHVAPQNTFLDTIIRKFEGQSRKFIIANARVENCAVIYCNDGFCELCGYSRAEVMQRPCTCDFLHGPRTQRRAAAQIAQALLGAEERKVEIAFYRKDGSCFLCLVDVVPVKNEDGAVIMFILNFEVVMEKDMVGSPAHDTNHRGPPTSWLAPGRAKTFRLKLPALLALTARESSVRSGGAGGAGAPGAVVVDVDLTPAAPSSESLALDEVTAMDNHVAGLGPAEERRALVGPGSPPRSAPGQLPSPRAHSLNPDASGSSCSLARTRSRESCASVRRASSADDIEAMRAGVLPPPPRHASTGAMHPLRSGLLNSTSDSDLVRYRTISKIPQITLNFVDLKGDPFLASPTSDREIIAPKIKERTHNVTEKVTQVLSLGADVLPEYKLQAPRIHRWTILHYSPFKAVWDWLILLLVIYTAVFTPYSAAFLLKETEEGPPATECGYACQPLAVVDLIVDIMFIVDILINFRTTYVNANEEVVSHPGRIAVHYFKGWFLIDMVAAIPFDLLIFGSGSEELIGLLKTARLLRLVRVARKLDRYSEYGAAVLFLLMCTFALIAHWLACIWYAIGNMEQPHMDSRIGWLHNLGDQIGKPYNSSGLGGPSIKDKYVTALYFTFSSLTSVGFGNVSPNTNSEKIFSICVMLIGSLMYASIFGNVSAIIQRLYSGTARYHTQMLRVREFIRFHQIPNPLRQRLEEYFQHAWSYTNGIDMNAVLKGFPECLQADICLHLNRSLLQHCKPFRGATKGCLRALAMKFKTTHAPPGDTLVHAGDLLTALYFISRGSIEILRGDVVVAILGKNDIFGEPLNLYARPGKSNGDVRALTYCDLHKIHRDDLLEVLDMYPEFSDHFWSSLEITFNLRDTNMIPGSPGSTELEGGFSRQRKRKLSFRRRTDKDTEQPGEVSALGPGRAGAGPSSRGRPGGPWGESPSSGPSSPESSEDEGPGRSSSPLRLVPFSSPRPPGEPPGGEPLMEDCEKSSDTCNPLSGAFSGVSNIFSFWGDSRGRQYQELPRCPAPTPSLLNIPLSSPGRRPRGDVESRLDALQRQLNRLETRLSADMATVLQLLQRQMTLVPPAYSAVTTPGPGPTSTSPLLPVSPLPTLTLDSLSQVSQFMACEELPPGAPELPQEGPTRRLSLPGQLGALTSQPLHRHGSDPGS

SMILES	IC50 [2] [nM]	IC50 [3] [nM]	IC50 [4] [nM]	also measured
Nc1ccc(-c2ccccc2)cc1NC(=O)c1ccc(N2CCNCC2)nc1 [Compound 006]				IC50 ([5]; 34 °C, tail current): 5.1 µM; IC50 [6]: > 10 µM
Nc1ccccc1NC(=O)c1ccc2nc(N3CCNCC3)ccc2c1 [Compound 001]				IC50 ([5]; 34 °C, tail current): > 30 µM
CN1CCN(c2ccc3cc(C(=O)Nc4cc(-c5ccco5)ccc4N)ncc3c2)CC1 [Compound 029]				IC50 ([5]; 34 °C, tail current): 5.2 µM
Nc1ccc(-c2ccncc2)cc1NC(=O)c1cnc2cc(N3CCNCC3)ccc2c1 [Compound 026]				IC50 ([5]; 34 °C, tail current): > 100 µM
CN1CCN(c2ncc(C(=O)Nc3cc(-c4cccs4)ccc3N)s2)CC1 [Compound 030]				IV Clr. ([1]; IV 1 mg/kg, plasma): 0.48 L/h/kg; PO AUC ([1]; PO 5 mg/kg, plasma): 15260 ng·h/mL; PO Cmax ([1]; PO 5 mg/kg, plasma): 944 ng/mL; PO T½ ([1]; PO 5 mg/kg, plasma): 12.8 h; F % ([1]; oral AUC to IV AUC, dose adjusted): 170%; IC50 [6]: > 10 µM
Nc1ccc(-c2ccc(F)cc2)cc1NC(=O)c1ccc(N2CCNCC2)cn1 [Compound 038]	< 10	10 to 500	10 to 500	IC50 ([5]; unit inferred): 2.5 µM
Nc1ccccc1NC(=O)c1cc2ccc(N3CCNCC3)cc2cn1 [Compound 021]				bioavailability [1, 7]: 89.8%; IV clearance ([1]; IV 1 mg/kg, plasma): 94.3 mL/min/kg; AUC ([1]; PO 5 mg/kg, plasma): 763 ng·h/mL; Cmax ([1]; PO 5 mg/kg, plasma): 68 ng/mL; half-life ([1]; PO 5 mg/kg, plasma): 192 min; IC50 ([5]; 34 °C, tail current): 4.2 µM
Nc1ccc(-c2ccoc2)cc1NC(=O)c1cnc2cc(N3CCNCC3)ccc2c1 [Compound 025]				IC50 [6]: > 10 µM
Nc1ccc(-c2ccco2)cc1NC(=O)c1cnc(N2CCNCC2)o1 [Compound 061]	> 500	> 500	> 500	
Nc1ccc(-c2ccccc2)cc1NC(=O)c1cnc(N2CCNCC2)o1 [Compound 062]	> 500	> 500	> 500	
Nc1ccc(-c2ccncc2)cc1NC(=O)c1nc(N2CCNCC2)cs1 [Compound 057]	> 500	10 to 500	> 500	
Nc1ccc(-c2cccs2)cc1NC(=O)c1cnc(N2CCNCC2)o1 [Compound 060]	> 500	> 500	> 500	
Nc1ccc(-c2cccs2)cc1NC(=O)c1cnc(N2CCNCC2)cn1 [Compound 040]	< 10	< 10	10 to 500	bioavailability [1, 7]: 151%; IV clearance ([1]; IV 1 mg/kg, plasma): 26.7 mL/min/kg; AUC ([1]; PO 5 mg/kg, plasma): 3340 ng·h/mL; Cmax ([1]; PO 5 mg/kg, plasma): 211 ng/mL; half-life ([1]; PO 5 mg/kg, plasma): 1000 min
Nc1ccc(-c2cccc(F)c2)cc1NC(=O)c1ccc(N2CCNCC2)nc1 [Compound 077]	10 to 500	10 to 500	10 to 500	

Further lines, with some results ahead:

IC50 [2] [nM]	IC50 [3] [nM]	IC50 [4] [nM]	SMILES	also measured
< 10	10 to 500	10 to 500	Nc1ccc(-c2ccc(F)cc2)cc1NC(=O)c1ccc(N2CCNCC2)nc1 [Compound 036]	bioavailability [1, 7]: 69.1%; IV clearance ([1]; IV 1 mg/kg, plasma): 7 mL/min/kg; AUC ([1]; PO 5 mg/kg, plasma): 7280 ng·h/mL; Cmax ([1]; PO 5 mg/kg, plasma): 500 ng/mL; half-life ([1]; PO 5 mg/kg, plasma): 438 min
< 10	10 to 500	10 to 500	CN1CCN(c2ccc(C(=O)Nc3cc(-c4ccccc4)ccc3N)cn2)CC1 [Compound 070]	
> 500	10 to 500	> 500	Nc1ccc(-c2ccco2)cc1NC(=O)c1nc(N2CCNCC2)cs1 [Compound 055]	
10 to 500	10 to 500	10 to 500	Nc1ccc(-c2ccc(F)cc2)cc1NC(=O)c1nc(N2CCNCC2)cs1 [Compound 058]	
> 500	> 500	> 500	Nc1ccc(-c2ccc(F)cc2)cc1NC(=O)c1cnc(N2CCNCC2)o1 [Compound 063]	
< 10	10 to 500	10 to 500	Nc1ccc(-c2ccncc2)cc1NC(=O)c1ccc(N2CCNCC2)s1 [Compound 067]	
< 10	10 to 500	10 to 500	CN1CCN(c2ccc(C(=O)Nc3cc(-c4ccoc4)ccc3N)cn2)CC1 [Compound 075]	
< 10	10 to 500	> 500	CN1CCN(c2ncc(C(=O)Nc3cc(-c4ccccc4)ccc3N)s2)CC1 [Compound 048]	
< 10	10 to 500	10 to 500	CN1CCN(c2ccc(C(=O)Nc3cc(-c4ccoc4)ccc3N)nc2)CC1 [Compound 083]	
< 10	10 to 500	10 to 500	Nc1ccc(-c2ccncc2)cc1NC(=O)c1ncc(N2CCNCC2)s1 [Compound 052]	
10 to 500	10 to 500	> 500	Nc1ccc(-c2ccccc2)cc1NC(=O)c1cc(N2CCNCC2)cs1 [Compound 069]	
< 10	10 to 500	10 to 500	CN1CCN(c2ccc(C(=O)Nc3cc(-c4ccco4)ccc3N)cn2)CC1 [Compound 074]	
< 10	10 to 500	10 to 500	Nc1ccc(-c2ccoc2)cc1NC(=O)c1ccc(N2CCNCC2)s1 [Compound 066]	
< 10	< 10	10 to 500	Nc1ccc(-c2ccc(F)cc2)cc1NC(=O)c1ncc(N2CCNCC2)s1 [Compound 053]	
< 10	10 to 500	> 500	Nc1ccc(-c2ccccc2)cc1NC(=O)c1cnc(N2CCNCC2)s1 [Compound 047]	
< 10	10 to 500	10 to 500	Nc1ccc(-c2ccccc2F)cc1NC(=O)c1ccc(N2CCNCC2)nc1 [Compound 076]	
10 to 500	10 to 500	10 to 500	Nc1ccc(-c2ccncc2)cc1NC(=O)c1cnc(N2CCNCC2)cn1 [Compound 089]	
< 10	10 to 500	10 to 500	Nc1ccc(-c2ccoc2)cc1NC(=O)c1cnc(N2CCNCC2)cn1 [Compound 088]	
< 10	10 to 500	10 to 500	CN1CCN(c2cnc(C(=O)Nc3cc(-c4ccco4)ccc3N)s2)CC1 [Compound 054]	
< 10	10 to 500	10 to 500	Nc1ccc(-c2ccc(F)cc2)cc1NC(=O)c1ccc2nc(N3CCNCC3)ccc2c1 [Compound 035]	bioavailability [1, 7]: 70.5%; IV clearance ([1]; IV 1 mg/kg, plasma): 2.83 mL/min/kg; AUC ([1]; PO 5 mg/kg, plasma): 20200 ng·h/mL; Cmax ([1]; PO 5 mg/kg, plasma): 1870 ng/mL; half-life ([1]; PO 5 mg/kg, plasma): 264 min

— patent publication US10385031B2, “Substituted piperazines as selective HDAC1,2 inhibitors” (Regenacy Pharmaceuticals, LLC, priority 2016, dated 2019)
